Where “and” joins values, the source holds several entries; their conditions need not be identical. Identical values can stand only once. Inconclusive results and toxic doses are left out. Rule for the calls: active = survival T/C of 150% or more; inactive = T/C below 125% in these data.
System: CD2F1 mice, L1210 leukemia ip, survival T/C
Test: NCI In Vivo Anticancer Drug Screen. Data for tumor model L1210 Leukemia (intraperitoneal) in CD2F1 (CDF1) mice
Conditions: higher = longer survival
Procedure, shortened: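 Tumor-bearing mice (transplanted tumor) were split into treated and vehicle control groups, and the measured endpoint of each treated group was divided by that of its vehicle controls.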

[1] = endpoint: mean survival time, dose: 50.0 mg/kg/injection, schedule: Q01DX009 (ip), vehicle: saline with Tween-80
[2] = endpoint: mean survival time, dose: 100.0 mg/kg/injection, schedule: Q01DX009 (ip), vehicle: saline with Tween-80
[3] = endpoint: mean survival time, dose: 100.0 mg/kg/injection, schedule: Q04DX002 (ip), vehicle: saline with Tween-80
[4] = endpoint: mean survival time, dose: 100.0 mg/kg/injection, schedule: Q04DX003 (ip), vehicle: saline with Tween-80
[5] = endpoint: mean survival time, dose: 200.0 mg/kg/injection, schedule: Q01DX009 (ip), vehicle: saline with Tween-80
[6] = endpoint: mean survival time, dose: 200.0 mg/kg/injection, schedule: Q04DX002 (ip), vehicle: saline with Tween-80
[7] = endpoint: mean survival time, dose: 200.0 mg/kg/injection, schedule: Q04DX003 (ip), vehicle: saline with Tween-80
[8] = endpoint: mean survival time, dose: 100.0 mg/kg/injection, schedule: Q01DX001 (ip), vehicle: saline
[9] = endpoint: mean survival time, dose: 200.0 mg/kg/injection, schedule: Q01DX001 (ip), vehicle: saline
[10] = endpoint: mean survival time, dose: 400.0 mg/kg/injection, schedule: Q01DX001 (ip), vehicle: saline
[11] = endpoint: mean survival time, dose: 400.0 mg/kg/injection, schedule: Q04DX003 (ip), vehicle: saline with Tween-80
[12] = endpoint: mean survival time, dose: 400.0 mg/kg/injection, schedule: Q04DX002 (ip), vehicle: saline with Tween-80

Measured: T/C

CC(=O)OC/C=C(C)/C=C/C=C(C)/C=C/C1=C(C)CCCC1(C)C
inactive: endpoint: mean survival time, dose: 200.0 mg/kg/injection, schedule: Q01DX001 (ip), vehicle: steriod suspending solution 96 % of control | endpoint: mean survival time, dose: 200.0 mg/kg/injection, schedule: Q01DX009 (ip), vehicle: steriod suspending solution 96 % of control | endpoint: mean survival time, dose: 400.0 mg/kg/injection, schedule: Q01DX001 (ip), vehicle: steriod suspending solution 102 % of control | endpoint: mean survival time, dose: 400.0 mg/kg/injection, schedule: Q01DX009 (ip), vehicle: steriod suspending solution 93 % of control | endpoint: mean survival time, dose: 800.0 mg/kg/injection, schedule: Q01DX001 (ip), vehicle: steriod suspending solution 92 % of control | endpoint: mean survival time, dose: 800.0 mg/kg/injection, schedule: Q01DX009 (ip), vehicle: steriod suspending solution 86 % of control | endpoint: mean survival time, dose: 1600.0 mg/kg/injection, schedule: Q01DX001 (ip), vehicle: steriod suspending solution 92 % of control

CCOC(=O)c1ccc(NC(=O)Nc2cccc(NC(C)=O)c2)cc1
inactive: endpoint: mean survival time, dose: 50.0 mg/kg/injection, schedule: Q01DX001 (ip), vehicle: saline with Tween-80 96 % of control | [1] 87 % of control and 91 % of control | endpoint: mean survival time, dose: 50.0 mg/kg/injection, schedule: Q04DX003 (ip), vehicle: saline with Tween-80 90 % of control | endpoint: mean survival time, dose: 100.0 mg/kg/injection, schedule: Q01DX001 (ip), vehicle: saline with Tween-80 92 % of control | [2] 87 % of control and 91 % of control | [3] 87 % of control and 90 % of control | [4] 86 % of control | endpoint: mean survival time, dose: 200.0 mg/kg/injection, schedule: Q01DX001 (ip), vehicle: saline with Tween-80 96 % of control | [5] 91 % of control | [6] 91 % of control | [7] 100 % of control | endpoint: mean survival time, dose: 400.0 mg/kg/injection, schedule: Q01DX001 (ip), vehicle: saline with Tween-80 92 % of control

COc1cc2cc[n+](C)cc2cc1OC
inactive: endpoint: mean survival time, dose: 25.0 mg/kg/injection, schedule: Q01DX009 (ip), vehicle: water 98 % of control | endpoint: mean survival time, dose: 50.0 mg/kg/injection, schedule: Q01DX009 (ip), vehicle: water 103 % of control | endpoint: mean survival time, dose: 100.0 mg/kg/injection, schedule: Q01DX009 (ip), vehicle: water 101 % of control

CCOC(=O)C1CNC(=O)C1=O (stereo unspecified)
inactive: [8] 106 % of control | [4] 100 % of control | [9] 110 % of control | [7] 101 % of control | [10] 106 % of control | [11] 95 % of control

O=[N+]([O-])/C=C/c1ccccc1
inactive: endpoint: mean survival time, dose: 20.0 mg/kg/injection, schedule: Q01DX009 (ip), vehicle: saline with Tween-80 106 % of control | endpoint: mean survival time, dose: 20.0 mg/kg/injection, schedule: Q04DX003 (ip), vehicle: saline with Tween-80 102 % of control | endpoint: mean survival time, dose: 40.0 mg/kg/injection, schedule: Q04DX003 (ip), vehicle: saline with Tween-80 96 % of control | endpoint: mean survival time, dose: 80.0 mg/kg/injection, schedule: Q04DX003 (ip), vehicle: saline with Tween-80 94 % of control

CCCCCCCC/C=C/CCCCCCCCCCCCBr
inactive: [2] 104 % of control | endpoint: mean survival time, dose: 100.0 mg/kg/injection, schedule: Q04DX003 (ip), vehicle: saline 98 % of control | [5] 93 % of control | endpoint: mean survival time, dose: 200.0 mg/kg/injection, schedule: Q04DX003 (ip), vehicle: saline 97 % of control | endpoint: mean survival time, dose: 400.0 mg/kg/injection, schedule: Q01DX009 (ip), vehicle: saline with Tween-80 103 % of control | endpoint: mean survival time, dose: 400.0 mg/kg/injection, schedule: Q04DX003 (ip), vehicle: saline 92 % of control

Cc1ccc(S(=O)(=O)n2nc(C3OC(CO)C(O)C3O)c(O)c2C(N)=O)cc1 (stereo unspecified)
inactive: endpoint: median survival time, dose: 44.6 mg/kg/injection, schedule: Q01DX005 (ip), vehicle: saline 120 % of control | endpoint: median survival time, dose: 89.3 mg/kg/injection, schedule: Q01DX005 (ip), vehicle: saline 120 % of control

Cl/C=C(\Cl)CCl
inactive: endpoint: mean survival time, dose: 25.0 mg/kg/injection, schedule: Q01DX009 (ip), vehicle: saline with Tween-80 91 % of control | [1] 96 % of control | [2] 94 % of control

O=[N+]([O-])c1cc([N+](=O)[O-])c2nc3ccccn3c2c1
inactive: [4] 101 % of control | [7] 101 % of control | [11] 101 % of control

CCCCCCCCCCCCOc1ccc(F)cc1C
inactive: [3] 93 % of control | [6] 93 % of control | [12] 96 % of control

O=[P+](O)O[P+](=O)O.O=[P+](O)O[P+](=O)O.O=[P+](O)O[P+](=O)O.O=[P+](O)O[P+](=O)O.[Cl][Pt].[Cl][Pt]
inactive: endpoint: median survival time, dose: 3.12 mg/kg/injection, schedule: Q04DX003 (ip), vehicle: saline 102 % of control | endpoint: median survival time, dose: 6.25 mg/kg/injection, schedule: Q04DX003 (ip), vehicle: saline 96 % of control | endpoint: median survival time, dose: 12.5 mg/kg/injection, schedule: Q04DX003 (ip), vehicle: saline 95 % of control | endpoint: median survival time, dose: 25.0 mg/kg/injection, schedule: Q04DX003 (ip), vehicle: saline 97 % of control | endpoint: median survival time, dose: 50.0 mg/kg/injection, schedule: Q04DX003 (ip), vehicle: saline 104 % of control

C=C(C)C1CCC2(C(=O)OC)CCC3(C)C(CCC4C5(C)CCC(=O)C(C)(C)C5CCC43C)C12 (stereo unspecified)
inactive: endpoint: mean survival time, dose: 100.0 mg/kg/injection, schedule: Q01DX001 (ip), vehicle: Klucel (hydroxypropylcellulose) (HPC) 96 % of control | endpoint: mean survival time, dose: 200.0 mg/kg/injection, schedule: Q01DX001 (ip), vehicle: Klucel (hydroxypropylcellulose) (HPC) 91 % of control | endpoint: mean survival time, dose: 400.0 mg/kg/injection, schedule: Q01DX001 (ip), vehicle: Klucel (hydroxypropylcellulose) (HPC) 94 % of control

O=C(CCc1ccc(C(=O)C[n+]2ccccc2)cc1)C[n+]1ccccc1
inactive: endpoint: mean survival time, dose: 0.5 mg/kg/injection, schedule: Q04DX003 (ip), vehicle: saline 104 % of control | endpoint: mean survival time, dose: 1.0 mg/kg/injection, schedule: Q04DX003 (ip), vehicle: saline 101 % of control | endpoint: mean survival time, dose: 2.0 mg/kg/injection, schedule: Q04DX003 (ip), vehicle: saline 95 % of control

CC1(C)OCC(C2OC(C)(C)OC2C2COC(C)(C)O2)O1 (stereo unspecified)
inactive: [3] 100 % of control | [6] 94 % of control | [12] 101 % of control

CCCCC1=C(P(=O)(OCC)OCC)C(F)(F)C(F)(F)C1(F)F
inactive: endpoint: mean survival time, dose: 75.0 mg/kg/injection, schedule: Q01DX001 (ip), vehicle: other 98 % of control | endpoint: mean survival time, dose: 150.0 mg/kg/injection, schedule: Q01DX001 (ip), vehicle: other 86 % of control | endpoint: mean survival time, dose: 300.0 mg/kg/injection, schedule: Q01DX001 (ip), vehicle: other 100 % of control

COc1ccc2c(c1)C1(C)CCC(=O)C(C)=C1CC2 (stereo unspecified)
inactive: [8] 105 % of control | [9] 98 % of control | [10] 98 % of control

C1=C[S+](c2ccccc2)C(c2ccccc2)c2ccccc21 (stereo unspecified)
inactive: endpoint: mean survival time, dose: 12.5 mg/kg/injection, schedule: Q04DX002 (ip), vehicle: Klucel (hydroxypropylcellulose) (HPC) 106 % of control | endpoint: mean survival time, dose: 25.0 mg/kg/injection, schedule: Q04DX002 (ip), vehicle: Klucel (hydroxypropylcellulose) (HPC) 115 % of control

Reference: PubChem BioAssay AID256 (DTP/NCI, 2004)
